In patent US20250262167A1, “COMPOUNDS, TARGETS AND PATHWAYS FOR MACROPHAGE MODULATION” (Massachusetts Institute of Technology, priority 2020, published 2025):
Counter-ions that a name gives are not always drawn.

What was measured:
[1] = system: human monocyte-derived macrophages (hMDMs); assay: High throughput phenotypic screen of macrophage activation (cell shape, Z-score); assay type: cell-based; set-up: key to Average Z-value: Z-score vs DMSO; negative = round cells, positive = elongated; conditions: for activation state induced in the screen: compounds regulating actin-cytoskeleton; for cell shape induced: known M1-/M2-activating stimuli;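 for all read-outs here: phalloidin and DAPI stained hMDMs imaged by high-content microscopy, cell eccentricity compared with DMSO control by T-test, round morphology scored negative, elongated positive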
Procedure: The Z-score was calculated by T-test to measure the difference of cell morphology between treatment and control. Stimuli had negative Z-scores when induced cells to round morphology and positive scores when induced cells to elongated morphology. […] Equally mixed human monocytes isolated from fresh blood of 4 healthy donors were cultured in vitro with 50 ng/mL M-CSF for 7 days. hMDMs were trypsinized and plated on 384-well plates (5000 cells/well in 50 μL). Cells were recovered in 10 ng/mL M-CSF for 16 hrs and then treated with compounds for 24 hrs. Cells were washed, fixed and stained with Phalloidin and DAPI. The plates were scanned with a high-content microscope with six-fields per well to quantify the cell number and cell morphology. […] The cell eccentricity was calculated to measure the cell morphology. The Z-score was calculated by T-test to measure the difference in cell morphologies between each compound and DMSO control.
Cells were treated with a library of over 4000 individual compounds or drugs at the final concentration of 20 μM using the CyBi-Well simultaneous pipettor (CyBio). […] After 24 hr incubation, supernatants were removed using the microplate washer (Bioteck) and cells were fixed by adding 50 μL 16% paraformaldehyde (Thermo Scientific) with the dispenser for 20 minutes. Cells were then washed with 50 μL 1×PBS twice and incubated for 20 minutes with NucBlue and AF746 Phalloidin (Invitrogen) to stain nucleus and cytoskeleton. Cells were then washed with 50 μL 1×PBS twice and maintained in PBS for the image acquirement. Plates were read in the Opera Phenix high content screening system (PerkinElmer) to photograph cells using 20× objective in 2 fluorescent channels (Blue and FarRed). A total of 6 different fields in each well and an average of 1,000 cells were imaged per well. CellProfiler was used to identify each cell by overlapping signals from its nucleus and cytoskeleton, and calculate the eccentricity as the parameter to measure the cell morphology. The Z-score was calculated by T-test to measure the difference of cell morphology between each treatment and control. For each row of the 384-well plate, total 4 wells with first and last two columns treated with the same concentration of DMSO were combined as the control for the other 20 treatment wells in that row. In the meantime, classic M1 and M2 stimuli were added to generate the gold-standard Z-score cutoffs with M1 or M2 activation. Classic M1 stimuli include LPS (100 ng/mL), IFNγ (50 ng/mL, Peprotech), TNFα (50 ng/mL, Peprotech), or IFNγ plus TNFα. Classic M2 stimuli include IL-10 (10 ng/mL, Peprotech), IL-4 (10 ng/mL, Peprotech), or IL-13 (5 ng/mL, Peprotech).

[2] = system: hMDMs differentiated into M1 by IFNγ plus TNFα; assay: Reprogramming screen and dosage response on M1-like differentiated macrophages; assay type: cell-based, human; conditions: for EC (M2 Z-score cutoff): M2-activating compounds on M1-like macrophages (IFNγ plus TNFα), EC = concentration reaching Z-score cutoff; for Category: differentiated macrophages
Procedure: Data were summarized from 3 independent experiments.
(§1) Human macrophages were seeded into optical 384-well plates. Sixteen hours later, medium in M1 plates were replaced by M1 differentiating medium (complete RPMI with 50 ng/mL IFNγ and 50 ng/mL TNFα) and medium in M2 plates by M2 differentiating medium (complete RPMI with 5 ng/mL IL-4 and 5 ng/mL IL-13). After 24 hrs cell differentiation, M1 plates (M1 macrophages) and M2 plates (M2 macrophages) were treated with M2-activating compounds and M1-activating compounds respectively for 24 hrs. Two independent experiments were performed with or without replacing differentiating medium right before treatment. Cell imaging and analysis were performed as indicated above.
To investigate whether the identified compounds could reprogram or reactivate macrophages after M1- or M2-like differentiation, we rescreened the hits on M1- or M2-activated macrophages. hMDMs were activated into M2-like macrophages by IL-4 plus IL-13 or M1-like macrophages by IFNγ plus TNFα. […] 24 hours later, cell images were taken and cell shapes were quantified.
(§2) We also rescreened the hits on differentiated macrophages in the presence of differentiating cytokines: either IL-4 plus IL-13 or IFNγ plus TNFα.

[3] = system: hMDMs differentiated into M2 by IL-4 plus IL-13; assay: Reprogramming screen and dosage response on M2-like differentiated macrophages; conditions: for EC (M1 Z-score cutoff): Homo sapiens, Macrophage, 24 h, read-out: EC; for EC: M1-activating compounds on M2-like macrophages (IL-4 plus IL-13), EC = concentration reaching Z-score cutoff; for Category: differentiated macrophages;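 for all read-outs here: human monocyte-derived macrophages held 24 h in 5 ng/mL IL-4 plus IL-13 before 24 h compound exposure, with cell shape measured from images in 384-well plates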
Procedure: Shown are comparison of Z-scores between 5 μM or 10 μM of compounds. […] Shown are comparison of Z-scores between 5 μM or 10 μM of compounds. […] EC and fitness of 21 M1-polarizing (triangle) and 19 M2-polarizing compounds (circle) were calculated by the Michaelis-Menten equation and plotted. Data were summarized from 3 independent experiments.
as §1
To investigate whether the identified compounds could reprogram or reactivate macrophages after M1- or M2-like differentiation, we rescreened the hits on M1- or M2-activated macrophages. hMDMs were activated into M2-like macrophages by IL-4 plus IL-13 or M1-like macrophages by IFNγ plus TNFα. After removing the differentiating cytokines, M2-like macrophages were treated with each of the 166 M1-activating compounds and M1-like macrophages were treated with each of the 180 M2-activating compounds at a final concentration of either 5 μM and 10 μM. 24 hours later, cell images were taken and cell shapes were quantified. […] Dosage responses were carried out with 40 commercial available compounds (21 M1-activating and 19 M2-activating) on polarized macrophages.
as §2

[4] = cell shape Z-score of hMDMs treated with compound at 20 µM for 24 hours, averaged over the compounds listed for the WikiPathways pathway, negative = M1-like, positive = M2-like
[5] = cell shape Z-score of hMDMs averaged over the compounds listed for the Wiki pathway, compounds at 20 µM for 24 hours, positive values = M2-like
[6] = average cell-shape Z-score of the listed compounds whose targets fall in the Wiki pathway, hMDMs, 20 µM, 24 hours, M1-activating compounds (negative Z)

O=C1Nc2ccccc2C2=NC(CN3CCN(c4ccccc4)CC3)CN12 (stereo not shown)
Average Z-value [1, 4]: −9.21

CC(C)(C)n1nc(-c2cccc3ccccc23)c2c(N)ncnc21 [1-Naphthyl PP1]
EC (M2 Z-score cutoff) [2]: 2.072 µM
Category [2]: M2 (6 for M2-activated macrophages)

CC1(C)C(=O)C=C[C@]2(C)[C@H]3CC[C@@]4(C)[C@H](c5ccoc5)OC(=O)[C@H]5O[C@]54[C@]3(C)C=C[C@@H]12 [7-DESACETOXY-6,7-DEHYDROGEDUNIN]
Average Z-value [1, 5]: 7.92

CCCCC[C@H](O)/C=C/[C@H]1[C@H](O)CC(=O)[C@@H]1CCCCCCC(=O)O [Alprostadil]
Average Z-value [1, 4]: −4.86
EC (M1 Z-score cutoff) [3]: 0.0562 µM

O=C1Cc2c([nH]c3ccc([N+](=O)[O-])cc23)-c2ccccc2N1 [Alsterpaullone]
Average Z-value [1, 5]: 12.55

O=C1NC(=O)c2c1c1c3ccccc3[nH]c1c1[nH]c3ccccc3c21 [Arcyriaflavin A]
EC (M2 Z-score cutoff) [2]: 1.342 µM
Category [2]: M2 (6 for M2-activated macrophages)

CNC(=O)c1ccccc1Sc1ccc2c(/C=C/c3ccccn3)n[nH]c2c1 [Axitinib]
EC (M2 Z-score cutoff) ([2]; Homo sapiens, Macrophage, 24 h): 0.591 µM

COc1cc(Nc2c(C#N)cnc3cc(OCCCN4CCN(C)CC4)c(OC)cc23)c(Cl)cc1Cl [Bostunib]
EC (M2 Z-score cutoff) ([2]; Homo sapiens, Macrophage, 24 h): 0.164 µM

CCOc1nc2cccc(C(=O)OC(C)OC(=O)OC3CCCCC3)c2n1Cc1ccc(-c2ccccc2-c2nn[nH]n2)cc1 (stereo not shown) [CANDESARTAN CILEXTIL]
Average Z-value [1, 4]: −4.32

Cc1c[nH]c(-c2cnc(NCCNc3ccc(C#N)cn3)nc2-c2ccc(Cl)cc2Cl)n1 [CHIR-99021]
Average Z-value [1, 4]: −4.52

C[C@@]12C(=O)OC(=O)[C@]1(C)[C@H]1CC[C@@H]2O1 [Cantharidin]
EC (M1 Z-score cutoff) [3]: 0.159 µM

COc1cc2c(cc1OC)[C@@H]1C(=O)c3ccc4c(c3O[C@@H]1CO2)C[C@H](C(C)C)O4 [DIHYDROROTENONE]
Average Z-value [1, 4]: −5.14

OCCN(CCO)c1nc(N2CCCCC2)c2nc(N(CCO)CCO)nc(N3CCCCC3)c2n1 [DIPYRIDAMOLE]
Average Z-value [1, 6]: −4.41
Average Z-value [1, 4]: −4.41

Cc1nc(Nc2ncc(C(=O)Nc3c(C)cccc3Cl)s2)cc(N2CCN(CCO)CC2)n1 [Dasatinib]
EC (M2 Z-score cutoff) ([2]; Homo sapiens, Macrophage, 24 h): 0.762 µM

c1cc(-c2cnn3cc(-c4ccc(OCCN5CCCCC5)cc4)cnc23)ccn1 [Dorsomorphin dihydrochloride]
Average Z-value [1, 5]: 11.09

CN(C)CCC=C1c2ccccc2COc2ccccc21 [Doxepine HCl]
Average Z-value [1, 5]: 6.87

COc1cc2ncn(-c3cc(OCc4ccccc4C(F)(F)F)c(C(N)=O)s3)c2cc1OC [GW-843682X]
EC (M2 Z-score cutoff) ([2]; Homo sapiens, Macrophage, 24 h): 0.897 µM

Cl.Cl.O=S(=O)(NCCNC/C=C/c1ccc(Br)cc1)c1cccc2cnccc12 [H 89 dihydrochloride]
Average Z-value [1, 5]: 7.14

COc1ccc(S(=O)(=O)N(C(C)=O)c2ccccc2/C=C/c2cc[n+]([O-])cc2)cc1 [HMN214]
EC (M1 Z-score cutoff) [3]: 1.48 µM

O=C(c1ccc(Nc2nccc(-c3cc4ccccc4s3)n2)cc1)N1CCC(N2CCCC2)CC1 [IKK 16]
Average Z-value [1, 6]: −4.98

O=C(c1ccc(/C=C/c2n[nH]c3ccccc23)cc1)N1CCNCC1 [KW 2449]
EC (M2 Z-score cutoff) ([2]; Homo sapiens, Macrophage, 24 h): 2.16 µM

O=C(O)c1nn(Cc2ccc(Cl)cc2Cl)c2ccccc12 [LONIDAMINE]
Average Z-value [1, 5]: 6.13

COc1cc(C(=O)N2CCC(N3CCN(C)CC3)CC2)ccc1Nc1ncc2c(n1)N(C)c1ccccc1C(=O)N2C [LRRK2-IN-1]
Average Z-value [1, 5]: 8.88

COCCNCc1ccc(-c2cc3nccc(Oc4ccc(NC(=S)NC(=O)Cc5ccc(F)cc5)cc4F)c3s2)nc1 [MGCD-265]
EC (M2 Z-score cutoff) ([2]; Homo sapiens, Macrophage, 24 h): 0.911 µM

O=C1c2c(O)ccc(O)c2C(=O)c2c(NCCNCCO)ccc(NCCNCCO)c21 [MITOXANTRONE HYDROCHLORIDE]
EC (M1 Z-score cutoff) [3]: 0.559 µM

CC(C)C[C@H](NC(=O)CNC(=O)c1cc(Cl)ccc1Cl)B(O)O [MLN2238]
Average Z-value [1, 5]: 7.13
EC (M2 Z-score cutoff) ([2]; Homo sapiens, Macrophage, 24 h): 3.46 µM

COc1c(C)c2c(c(O)c1C/C=C(\C)CCC(=O)O)C(=O)OC2 [Mycophenolic acid]
Average Z-value [1, 4]: −4.54

Cc1c(C(=O)Nc2ccc(N3C[C@@H](C)O[C@@H](C)C3)nc2)cccc1-c1ccc(OC(F)(F)F)cc1 [NVP-LDE225]
EC (M2 Z-score cutoff) ([2]; Homo sapiens, Macrophage, 24 h): 2.77 µM

O=C(Nc1ccc([N+](=O)[O-])cc1Cl)c1cc(Cl)ccc1O [Niclosamide]
EC (M1 Z-score cutoff) [3]: 1.13 µM

CCC[C@H](N[C@@H](C)C(=O)N1[C@H](C(=O)O)C[C@@H]2CCCC[C@@H]21)C(=O)OCC [PERINDOPRIL ERBUMINE]
Average Z-value [1, 5]: 7.27

Cc1nc(Nc2[nH]nc3c2CN(C(=O)N[C@H](CN(C)C)c2ccccc2)C3(C)C)c2sccc2n1 [PF-3758309]
Average Z-value [1, 4]: −4.29

OC1(c2ccc(Cl)c(C(F)(F)F)c2)CCN(CCCC(c2ccc(F)cc2)c2ccc(F)cc2)CC1 [Penfluridol]
EC (M1 Z-score cutoff) [3]: 0.169 µM

Cc1oc(=O)oc1CN1CCN(c2cc3c(cc2F)c(=O)c(C(=O)O)c2n3C(C)S2)CC1 (stereo not shown) [Prulifloxacin]
EC (M1 Z-score cutoff) [3]: 15 µM

c1ccc2c(Oc3nc(Nc4ccc(N5CCOCC5)cc4)c4ncn(C5CCCCC5)c4n3)cccc2c1 [Purmorphamine]
EC (M2 Z-score cutoff) ([2]; Homo sapiens, Macrophage, 24 h): 2.35 µM

OC[C@H](Cc1ccccc1)Nc1nc(Oc2ccc3c(c2)CCC3)nc2c1ncn2Cc1ccc(-c2ccccc2)cc1 [QS 11]
EC (M2 Z-score cutoff) [2]: 0.2611 µM
Category [2]: M2 (6 for M2-activated macrophages)

CNC(=O)c1cc(Oc2ccc(NC(=O)Nc3ccc(Cl)c(C(F)(F)F)c3)c(F)c2)ccn1 [Regorafenib]
EC (M2 Z-score cutoff) ([2]; Homo sapiens, Macrophage, 24 h): 2.88 µM

CC1=C(/C=C/C(C)=C/C=C/C(C)=C/C(=O)O)C(C)(C)CCC1 [Retinoic acid]
Average Z-value [1, 5]: 6.86

CC[C@@]1(O)C(=O)OCc2c1cc1n(c2=O)Cc2cc3c([N+](=O)[O-])cccc3nc2-1 [Rubitecan]
Average Z-value [1, 4]: −4.17

CC(C)c1ccc(Cn2ccc3c4c(N)nc(NC5CC5)nc4ccc32)cc1.Cl.Cl [SCH 79797 dihydrochloride]
EC [3]: 0.2194 µM
Category [3]: M1 (−4 for M1-activated macrophages)

CO[C@H]1C[C@H](O[C@@H]2/C(C)=C/C[C@@H]3C[C@@H](C[C@]4(CC[C@H](C)[C@@H](C5CCCCC5)O4)O3)OC(=O)[C@@H]3C=C(C)/C(=N/O)[C@H]4OC/C(=C\C=C\[C@@H]2C)[C@]43O)O[C@@H](C)[C@@H]1O [SELAMECTIN]
EC (M2 Z-score cutoff) ([2]; Homo sapiens, Macrophage, 24 h): 15 µM

Cc1ccc(O)c(N=Nc2ccccc2)n1 [SIB 1757]
Average Z-value [1, 4]: −7.89

O=C1c2ccccc2-c2nc3nonc3nc21 [SMER3]
EC [3]: 0.09398 µM
Category [3]: M1 (−4 for M1-activated macrophages)

CNC(=O)c1cc(Oc2ccc(NC(=O)Nc3ccc(Cl)c(C(F)(F)F)c3)cc2)ccn1 [Sorafenib]
EC (M2 Z-score cutoff) ([2]; Homo sapiens, Macrophage, 24 h): 0.794 µM

CCCS(=O)(=O)Nc1ccc(F)c(C(=O)c2c[nH]c3ncc(-c4ccc(Cl)cc4)cc23)c1F [Vemurafenib]
Average Z-value [1, 4]: −8.55

CCC[C@H](NC(=O)/C(C#N)=C/c1cccc(Br)n1)c1ccccc1 [WP1130]
EC [3]: 15 µM
Category [3]: M1 (−4 for M1-activated macrophages)

COc1cc2c(c(OC)c1OC)-c1ccc(OC)c(=O)cc1[C@@H](NC(C)=O)CC2 [colchicine]
activation state induced in the screen [1]: M2-activating

C=C1[C@@H](C)[C@H]2[C@H](Cc3ccccc3)NC(=O)[C@]23OC(=O)/C=C/[C@H](O)CCC[C@@H](C)C/C=C/[C@H]3[C@@H]1O [cytochalasin B]
Average Z-value [1, 4]: −20.00

C=C1[C@@H](C)[C@H]2[C@H](Cc3ccccc3)NC(=O)[C@]23OC(=O)/C=C/[C@H](O)CCC[C@@H](C)C/C=C/[C@H]3[C@@H]1O [cytochalasin-B]
activation state induced in the screen [1]: M1-activating

CC[C@H](C)C(=O)O[C@H]1C[C@@H](C)C=C2C=C[C@H](C)[C@H](CC[C@@H]3C[C@@H](O)CC(=O)O3)[C@H]21 [lovastatin]
EC (M2 Z-score cutoff) ([2]; Homo sapiens, Macrophage, 24 h): 0.442 µM

COC(=O)Nc1nc2ccc(SC(C)C)cc2[nH]1 [methiazole]
activation state induced in the screen [1]: M1-activating

CC[C@@H]1/C=C/C=C/C[C@H](C)[C@H](O)[C@](C)(O)C(=O)[C@H](C)[C@@H](O)[C@H](C)C(=O)[C@H](C)[C@@H](O)[C@H](C)/C=C/C(=O)O[C@H]2[C@@H](C)[C@@H](CC1)O[C@@]1(CC[C@@H](C)[C@@H](C[C@H](C)O)O1)[C@@H]2C [oligomycin A]
Average Z-value [1, 5]: 7.16

CCCCc1ccc2[nH]c(NC(=O)OC)nc2c1 [parbendazole]
activation state induced in the screen [1]: M1-activating

COc1cc([C@@H]2c3cc4c(cc3[C@H](O)[C@H]3COC(=O)[C@H]23)OCO4)cc(OC)c1OC [podofilox]
activation state induced in the screen [1]: M2-activating

CC(C)[C@]12O[C@H]1[C@@H]1O[C@]13[C@]1(O[C@H]1C[C@H]1C4=C(CC[C@@]13C)C(=O)OC4)[C@@H]2O [triptolide]
EC (M2 Z-score cutoff) ([2]; Homo sapiens, Macrophage, 24 h): 0.0619 µM

Cc1onc(-c2ccccc2)c1-c1ccc(S(N)(=O)=O)cc1 [valdecoxib]
Average Z-value [1, 5]: 8.60

CC[C@]1(O)C[C@@H]2CN(CCc3c([nH]c4ccccc34)[C@@](C(=O)OC)(c3cc4c(cc3OC)N(C)[C@H]3[C@@](O)(C(=O)OC)[C@H](OC(C)=O)[C@]5(CC)C=CCN6CC[C@]43[C@@H]65)C2)C1 [vinblastine sulfate]
activation state induced in the screen [1]: M2-activating

(−)-Epigallocatechin Gallate
Average Z-value [1, 5]: 7.36

Evodiamine
EC [3]: 0.6799 µM

IL13: classic M2 stimulus
cell shape induced [1]: elongated cell shape

JTE 013
EC (M2 Z-score cutoff) [2]: 0.9381 µM
Category [2]: M2 (6 for M2-activated macrophages)

TNFα
cell shape induced [1]: round shape

YK 4-279
Average Z-value [1, 4]: −7.60

lipopolysaccharide [LPS]
cell shape induced [1]: round shape
